# Laboratory results from PubChem BioAssay (NCI).
#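 Cells were grown in 96-well plates and exposed to each compound for 48 hours at five concentrations; endpoints were interpolated linearly between bracketing concentrations, or set to the highest concentration if not reached. GI50 is the concentration that inhibits growth by half. TGI: concentration producing complete growth inhibition.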
# Columns and labels:
# Assay in all cases: NCI anticancer screen, dose series, 48 h
# M14 melanoma = system: M14 melanoma
# A549 NSCLC = system: A549 NSCLC
# CAKI-1 renal = system: CAKI-1 renal
# DU-145 prostate = system: DU-145 prostate
# SK-MEL-2 melanoma = system: SK-MEL-2 melanoma
# U251 CNS = system: U251 CNS
# NCI/ADR-RES ovarian = system: NCI/ADR-RES ovarian
# NCI-H23 lung = system: NCI-H23 lung
# SW-620 colon = system: SW-620 colon
# OVCAR-8 ovarian = system: OVCAR-8 ovarian
# SF-539 CNS = system: SF-539 CNS
# HOP-92 NSCLC = system: HOP-92 NSCLC
# TK-10 renal = system: TK-10 renal
# SK-MEL-28 melanoma = system: SK-MEL-28 melanoma
# UACC-257 melanoma = system: UACC-257 melanoma
# K-562 leukemia = system: K-562 leukemia
# HCT-116 colon = system: HCT-116 colon
# KM12 colon = system: KM12 colon
# MDA-MB-435 = system: MDA-MB-435
# COLO 205 colon = system: COLO 205 colon
# HCC-2998 colon = system: HCC-2998 colon
# IGROV1 ovarian = system: IGROV1 ovarian
# HOP-62 NSCLC = system: HOP-62 NSCLC
# ACHN renal = system: ACHN renal
# 786-0 renal = system: 786-0 renal
# NCI-H226 lung = system: NCI-H226 lung
# MALME-3M melanoma = system: MALME-3M melanoma
# SNB-19 CNS = system: SNB-19 CNS
# OVCAR-4 ovarian = system: OVCAR-4 ovarian
# PC-3 prostate = system: PC-3 prostate
# CCRF-CEM leukemia = system: CCRF-CEM leukemia
# HL-60(TB) leukemia = system: HL-60(TB) leukemia
# HCT-15 colon = system: HCT-15 colon
# NCI-H460 lung = system: NCI-H460 lung
# SF-295 CNS = system: SF-295 CNS
# OVCAR-5 ovarian = system: OVCAR-5 ovarian
# T-47D breast = system: T-47D breast
# HT29 colon = system: HT29 colon
# MCF7 breast = system: MCF7 breast
# SF-268 CNS = system: SF-268 CNS
# SN12C renal = system: SN12C renal
# MOLT-4 leukemia = system: MOLT-4 leukemia
# A498 renal = system: A498 renal
# LOX IMVI melanoma = system: LOX IMVI melanoma
# NCI-H522 lung = system: NCI-H522 lung
# UO-31 renal = system: UO-31 renal
# OVCAR-3 ovarian = system: OVCAR-3 ovarian
# RPMI-8226 leukemia = system: RPMI-8226 leukemia
# SK-MEL-5 melanoma = system: SK-MEL-5 melanoma
# UACC-62 melanoma = system: UACC-62 melanoma
# SNB-75 CNS = system: SNB-75 CNS
# BT-549 breast = system: BT-549 breast
# HS 578T breast = system: HS 578T breast
# RXF 393 renal = system: RXF 393 renal
# SK-OV-3 ovarian = system: SK-OV-3 ovarian
# MDA-MB-231 breast = system: MDA-MB-231 breast
# EKVX NSCLC = system: EKVX NSCLC
# SR leukemia = system: SR leukemia
structure (smiles),measurement,setting,value
CCc1cccc(NC(=O)Nc2ccc(Oc3ccc4nc(NC(=O)OC)[nH]c4c3)cc2)c1,GI50,M14 melanoma,3.13 µM
same,TGI,M14 melanoma,12.6 µM
same,GI50,A549 NSCLC,5.35 µM
same,TGI,A549 NSCLC,> 15.3 µM
same,GI50,CAKI-1 renal,> 15.4 µM
same,TGI,CAKI-1 renal,> 25 µM
same,GI50,DU-145 prostate,4.94 µM
same,TGI,DU-145 prostate,> 15.4 µM
same,GI50,SK-MEL-2 melanoma,2.94 µM
same,TGI,SK-MEL-2 melanoma,12.3 µM
same,GI50,U251 CNS,4.85 µM
same,TGI,U251 CNS,> 15.4 µM
same,GI50,NCI/ADR-RES ovarian,10.5 µM
same,TGI,NCI/ADR-RES ovarian,> 25 µM
same,GI50,NCI-H23 lung,5.59 µM
same,TGI,NCI-H23 lung,> 20.8 µM
same,GI50,SW-620 colon,3.05 µM
same,TGI,SW-620 colon,12.1 µM
same,GI50,OVCAR-8 ovarian,5.79 µM
same,TGI,OVCAR-8 ovarian,> 18.8 µM
same,GI50,SF-539 CNS,5.08 µM
same,TGI,SF-539 CNS,> 25 µM
same,GI50,HOP-92 NSCLC,2.33 µM
same,TGI,HOP-92 NSCLC,10.4 µM
same,GI50,TK-10 renal,6.61 µM
same,TGI,TK-10 renal,> 19.8 µM
same,GI50,SK-MEL-28 melanoma,3.52 µM
same,TGI,SK-MEL-28 melanoma,9.49 µM
same,GI50,UACC-257 melanoma,3.58 µM
same,TGI,UACC-257 melanoma,> 22.3 µM
same,GI50,K-562 leukemia,0.153 µM
same,TGI,K-562 leukemia,> 25 µM
same,GI50,HCT-116 colon,3.39 µM
same,TGI,HCT-116 colon,> 14.9 µM
same,GI50,KM12 colon,0.0985 µM
same,TGI,KM12 colon,4.94 µM
same,GI50,MDA-MB-435,0.0716 µM
same,TGI,MDA-MB-435,0.643 µM
same,GI50,COLO 205 colon,6.8 µM
same,TGI,COLO 205 colon,> 17.9 µM
same,GI50,HCC-2998 colon,11.7 µM
same,TGI,HCC-2998 colon,> 25 µM
same,GI50,IGROV1 ovarian,5.37 µM
same,TGI,IGROV1 ovarian,> 25 µM
same,GI50,HOP-62 NSCLC,3.1 µM
same,TGI,HOP-62 NSCLC,11 µM
same,GI50,ACHN renal,10.8 µM
same,TGI,ACHN renal,> 25 µM
same,GI50,786-0 renal,7 µM
same,TGI,786-0 renal,> 25 µM
same,GI50,NCI-H226 lung,5.03 µM
same,TGI,NCI-H226 lung,> 20.7 µM
same,GI50,MALME-3M melanoma,2.14 µM
same,TGI,MALME-3M melanoma,11.1 µM
same,GI50,SNB-19 CNS,10.1 µM
same,TGI,SNB-19 CNS,> 25 µM
same,GI50,OVCAR-4 ovarian,4.45 µM
same,TGI,OVCAR-4 ovarian,9.89 µM
same,GI50,PC-3 prostate,4.9 µM
same,TGI,PC-3 prostate,19.6 µM
same,GI50,CCRF-CEM leukemia,6.2 µM
same,TGI,CCRF-CEM leukemia,> 25 µM
same,GI50,HL-60(TB) leukemia,2.79 µM
same,TGI,HL-60(TB) leukemia,> 16.4 µM
same,GI50,HCT-15 colon,2.93 µM
same,TGI,HCT-15 colon,> 25 µM
same,GI50,NCI-H460 lung,3.4 µM
same,TGI,NCI-H460 lung,12.4 µM
same,GI50,SF-295 CNS,3.4 µM
same,TGI,SF-295 CNS,> 20.4 µM
same,GI50,OVCAR-5 ovarian,15 µM
same,TGI,OVCAR-5 ovarian,> 25 µM
same,GI50,T-47D breast,3.56 µM
same,TGI,T-47D breast,> 15.6 µM
same,GI50,HT29 colon,2.04 µM
same,TGI,HT29 colon,> 13.4 µM
same,GI50,MCF7 breast,0.654 µM
same,TGI,MCF7 breast,> 6.24 µM
same,GI50,SF-268 CNS,4.33 µM
same,TGI,SF-268 CNS,15.9 µM
same,GI50,SN12C renal,8.43 µM
same,TGI,SN12C renal,> 25 µM
same,GI50,MOLT-4 leukemia,10.4 µM
same,TGI,MOLT-4 leukemia,> 25 µM
same,GI50,A498 renal,3.2 µM
same,TGI,A498 renal,17.8 µM
same,GI50,LOX IMVI melanoma,3.77 µM
same,TGI,LOX IMVI melanoma,> 17.3 µM
same,GI50,NCI-H522 lung,0.921 µM
same,TGI,NCI-H522 lung,14.8 µM
same,GI50,UO-31 renal,> 25 µM
same,TGI,UO-31 renal,> 25 µM
same,GI50,OVCAR-3 ovarian,3.65 µM
same,TGI,OVCAR-3 ovarian,10 µM
same,GI50,RPMI-8226 leukemia,12.5 µM
same,TGI,RPMI-8226 leukemia,> 25 µM
same,GI50,SK-MEL-5 melanoma,1.29 µM
same,TGI,SK-MEL-5 melanoma,7.15 µM
same,GI50,UACC-62 melanoma,1.93 µM
same,TGI,UACC-62 melanoma,10.1 µM
same,GI50,SNB-75 CNS,2.53 µM
same,TGI,SNB-75 CNS,> 14.1 µM
same,GI50,BT-549 breast,8.24 µM
same,TGI,BT-549 breast,24.4 µM
same,GI50,HS 578T breast,1.41 µM
same,TGI,HS 578T breast,19.2 µM
same,GI50,RXF 393 renal,2.05 µM
same,TGI,RXF 393 renal,10.9 µM
same,GI50,SK-OV-3 ovarian,4.99 µM
same,TGI,SK-OV-3 ovarian,11.5 µM
same,GI50,MDA-MB-231 breast,7.76 µM
same,TGI,MDA-MB-231 breast,> 25 µM
same,GI50,EKVX NSCLC,> 23.9 µM
same,TGI,EKVX NSCLC,> 25 µM
same,GI50,SR leukemia,0.149 µM
same,TGI,SR leukemia,> 25 µM
